The subject of this test is Mycobacterium tuberculosis. In words: Antibacterial activity against Mycobacterium tuberculosis. It counts as functional, organism-based.

Active and inactive are the calls of the source. No cut-off for these calls is given here.

For `COc1ccc(NC(=O)[C@@H](O)CC(=O)O)cc1OC`, the outcome was inactive.

The values above are taken from ChEMBL document CHEMBL1150954, “Isolation and synthesis of an alpha-malamic acid derivative from Justicia ghiesbreghtiana” (J Nat Prod, 1998).
